Results from publication PMC9137512 (Antibiotics, 2022).

Columns and labels:
[1] = cited from earlier work
Description: Efficacy is associated with the area under the concentration-time curve (AUC) divided by the minimal inhibitory concentration (MIC). […] Standard in vitro me ...

[2] = Free dalbavancin in patient serum by solid phase extraction with a centrifugal device (Nanosep); assay type: in vivo, human; conditions: for fcmax(d1) *: day 1 peak; for fcmax(d1) * / fcmin(d8) *: free concentration determined by solid phase extraction (Nanosep); for fcmin(d8) *: day 8 trough; for fAUC(d8) *: from free concentration by solid phase extraction (Nanosep)
Method: The AUC was calculated using the trapezoidal rule.

clinical = conditions: for level at 192 h: iv
Method: The samples were subsequently analyzed according to the described method. […] The patients’ estimated glomerular filtration (eGFR) was calculated by the chronic kidney disease epidemiology collaboration equation (CKD–EPI). The AUC was calculated using the trapezoidal rule.
(§1) Subsequently, samples were mixed for 10 s, stored in an ultrasonic bath for 10 min at 40 °C, then centrifuged at 8000× g for 5 min. Next, 100 µL of the resulting supernatant was further diluted with 500 µL water with 0.1% formic acid. […] Details are described in the Supplementary Materials (Figures S1–S3).
An aliquot of 20 µL was injected onto the HPLC–UV system equipped with a diode array detector (Nexera-I 3D plus, Shimadzu, Duisburg, Germany). Chromatographic analysis was performed using a reversed phase column Shim-pack XR-ODS III with 2.2 µm particle size (150 mm × 2 mm, Shimadzu, Duisburg, Germany) in combination with a column guard (Shim-pack GISS-H (G) C18, 3 µm; 10 mm × 2.1 mm, Shimadzu, Duisburg, Germany). Separation was performed using a gradient of 0.1% formic acid in acetonitrile and 0.1% formic acid in water with a flow rate of 0.35 mL/min. The autosampler and column were set at temperatures of 10 °C and 45 °C, respectively.

[3] = Stability of aqueous stock solution; assay type: physicochemical; conditions: HPLC-UV
Description: For stability testing, two samples were thawed out and subsequently analyzed. Stability was defined by the time for which samples remained a concentration of > 90% of their baseline concentrations.

[4] = Free concentration and protein binding in spiked human serum samples (Table S5)
Method: as §1
Table S5. […] In order to evaluate the
(a) Spiked human serum samples of 14 patients (8 critically ill and 6 non-critically ill) after calibration with sheep serum.
(b) Spiked human serum samples of 9 critically ill patients and 6 healthy volunteers after calibration with human serum.

[5] = S5a, serum of patient 2 (critically ill) spiked 200 mg/L, measured c 207 mg/L, calibration with sheep serum
[6] = S5a, serum of patient 3 (critically ill) spiked 50 mg/L, measured c 51.2 mg/L, calibration with sheep serum
[7] = S5b, serum of 26 (healthy volunteer) spiked 200 mg/L, measured c 219 mg/L, calibration with human serum
[8] = S5b, serum of 27 (healthy volunteer) spiked 50 mg/L, measured c 52.5 mg/L, calibration with human serum
[9] = S5b, serum of 27 (healthy volunteer) spiked 200 mg/L, measured c 220 mg/L, calibration with human serum
[10] = S5b, serum of 28 (healthy volunteer) spiked 50 mg/L, measured c 49.1 mg/L, calibration with human serum

## CN[C@H]1C(=O)N[C@@H]2Cc3ccc(cc3)Oc3cc4cc(c3O[C@@H]3O[C@H](C(=O)O)[C@@H](O)[C@H](O)[C@H]3NC(=O)CCCCCCCCC(C)C)Oc3ccc(cc3Cl)[C@@H](O)[C@@H]3NC(=O)[C@H](NC(=O)[C@@H]4NC(=O)[C@@H](NC2=O)c2cc(cc(O)c2Cl)Oc2cc1ccc2O)c1ccc(O)c(c1)-c1c(O[C@H]2O[C@H](CO)[C@@H](O)[C@H](O)[C@@H]2O)cc(O)cc1[C@@H](C(=O)NCCCN(C)C)NC3=O [dalbavancin, Dalbavancin]
[1]; approximately
  elimination half-life: > 14 days
[1]
  clearance: 0.05 L/h
[2]; in accordance with the higher protein binding observed
  maximum free fraction at total concentrations below the LOQ of 12.5 mg/L: 0.4 mg/L
[2]; patient 1, 1500 mg
  fcmax(d1) *: 5.4 mg/L
  fcmin(d8) *: 1.3 mg/L
  fAUC(d8) *: 31200 ng·h/mL
[2]; patient 2, 1500 mg
  fcmax(d1) *: 6.4 mg/L
  fcmin(d8) *: 1.0 mg/L
  fAUC(d8) *: 24000 ng·h/mL
[2]; patient 3, 1500 mg
  fcmax(d1) *: 6.7 mg/L
  fcmin(d8) *: <1.0 mg/L
  fAUC(d8) *: <24000 ng·h/mL
clinical; human, in vivo, 1500 mg, cmax(d1)
  Cmax: 278000 ng/mL
clinical; human, in vivo, 1500 mg, cmin(d8)
  level at 192 h: 44900 ng/mL
clinical; human, in vivo, trough concentrations on day 8 before redosing
  level at 192 h: 23000 to 44900 ng/mL
clinical; range of three cardiologic patients, total serum
  peak concentrations after the initial dosing: 201 to 278 mg/L
[3]; frozen at −80 °C
  stability time (>90% of baseline concentration): at least 12 months
[3]; refrigerated (2–8 °C)
  stability time (>90% of baseline concentration): at least 3 months
[4]; S5a, serum of patient 1 (critically ill) spiked 50 mg/L, measured c 53.5 mg/L, Nanosep SPE, HPLC-UV, calibration with sheep serum
  fc: 1.4 mg/L
[4]; S5a, serum of patient 1 (critically ill) spiked 200 mg/L, measured c 201 mg/L, calibration with sheep serum
  fc: 7.6 mg/L
[4]; S5a, serum of patient 2 (critically ill) spiked 50 mg/L, measured c 53.6 mg/L, calibration with sheep serum
  fc: 1.7 mg/L
[4]; [5]
  PB: 96%
  fc: 9.0 mg/L
[4]; [6]
  PB: 96%
  fc: 1.9 mg/L
[4]; S5a, serum of patient 3 (critically ill) spiked 200 mg/L, measured c 209 mg/L, calibration with sheep serum
  fc: 9.1 mg/L
[4]; S5a, serum of patient 4 (critically ill) spiked 50 mg/L, measured c 54.2 mg/L, calibration with sheep serum
  fc: 1.6 mg/L
[4]; S5a, serum of patient 4 (critically ill) spiked 200 mg/L, measured c 212 mg/L, calibration with sheep serum
  fc: 7.7 mg/L
[4]; S5a, serum of patient 5 (critically ill) spiked 50 mg/L, measured c 53.0 mg/L, calibration with sheep serum
  fc: 2.1 mg/L
[4]; S5a, serum of patient 5 (critically ill) spiked 200 mg/L, measured c 203 mg/L, calibration with sheep serum
  fc: 9.5 mg/L
[4]; S5a, serum of patient 6 (critically ill) spiked 50 mg/L, measured c 50.4 mg/L, calibration with sheep serum
  fc: 1.5 mg/L
[4]; S5a, serum of patient 6 (critically ill) spiked 200 mg/L, measured c 204 mg/L, calibration with sheep serum
  fc: 9.2 mg/L
[4]; S5a, serum of patient 7 (critically ill) spiked 50 mg/L, measured c 49.1 mg/L, calibration with sheep serum
  fc: 2.4 mg/L
[4]; S5a, serum of patient 7 (critically ill) spiked 200 mg/L, measured c 195 mg/L, calibration with sheep serum
  fc: 10.2 mg/L
[4]; S5a, serum of patient 8 (critically ill) spiked 50 mg/L, measured c 54.3 mg/L, calibration with sheep serum
  fc: 1.8 mg/L
[4]; S5a, serum of patient 8 (critically ill) spiked 200 mg/L, measured c 201 mg/L, calibration with sheep serum
  fc: 8.7 mg/L
[4]; S5a, serum of patient 9 (non-critically ill) spiked 50 mg/L, measured c 40.0 mg/L, calibration with sheep serum
  fc: < 1.0 mg/L
[4]; S5a, serum of patient 9 (non-critically ill) spiked 200 mg/L, measured c 177 mg/L, calibration with sheep serum
  fc: 3.7 mg/L
[4]; S5a, serum of patient 10 (non-critically ill) spiked 50 mg/L, measured c 47.8 mg/L, calibration with sheep serum
  fc: < 1.0 mg/L
[4]; S5a, serum of patient 10 (non-critically ill) spiked 200 mg/L, measured c 180 mg/L, calibration with sheep serum
  fc: 4.0 mg/L
[4]; S5a, serum of patient 11 (non-critically ill) spiked 50 mg/L, measured c 38.6 mg/L, calibration with sheep serum
  fc: < 1.0 mg/L
[4]; S5a, serum of patient 11 (non-critically ill) spiked 200 mg/L, measured c 177 mg/L, calibration with sheep serum
  fc: 3.5 mg/L
[4]; S5a, serum of patient 12 (non-critically ill) spiked 50 mg/L, measured c 42.6 mg/L, calibration with sheep serum
  fc: < 1.0 mg/L
[4]; S5a, serum of patient 12 (non-critically ill) spiked 200 mg/L, measured c 195 mg/L, calibration with sheep serum
  fc: 3.9 mg/L
[4]; S5a, serum of patient 13 (non-critically ill) spiked 50 mg/L, measured c 53.0 mg/L, calibration with sheep serum
  fc: 1.1 mg/L
[4]; S5a, serum of patient 13 (non-critically ill) spiked 200 mg/L, measured c 214 mg/L, calibration with sheep serum
  fc: 6.3 mg/L
[4]; S5a, serum of patient 14 (non-critically ill) spiked 50 mg/L, measured c 50.0 mg/L, calibration with sheep serum
  fc: 1.1 mg/L
[4]; S5a, serum of patient 14 (non-critically ill) spiked 200 mg/L, measured c 208 mg/L, calibration with sheep serum
  fc: 4.6 mg/L
[4]; S5b, serum of 24 (healthy volunteer) spiked 50 mg/L, measured c 46.1 mg/L, calibration with human serum
  fc: 1.6 mg/L
[4]; S5b, serum of 24 (healthy volunteer) spiked 200 mg/L, measured c 184 mg/L, calibration with human serum
  fc: 4.6 mg/L
[4]; S5b, serum of 25 (healthy volunteer) spiked 50 mg/L, measured c 45.8 mg/L, calibration with human serum
  fc: 1.6 mg/L
[4]; S5b, serum of 25 (healthy volunteer) spiked 200 mg/L, measured c 197 mg/L, calibration with human serum
  fc: 5.8 mg/L
[4]; S5b, serum of 26 (healthy volunteer) spiked 50 mg/L, measured c 52.6 mg/L, calibration with human serum
  fc: 1.6 mg/L
[4]; [7]
  PB: 97%
  fc: 5.2 mg/L
[4]; [8]
  PB: 97%
  fc: 1.7 mg/L
[4]; [9]
  PB: 97%
  fc: 5.1 mg/L
[4]; [10]
  PB: 97%
  fc: 1.6 mg/L
[4]; S5b, serum of 28 (healthy volunteer) spiked 200 mg/L, measured c 199 mg/L, calibration with human serum
  PB: 98%
